The values that follow come from patent US7488736B2, “Thienopyridinone compounds and methods of treatment” (Epix Delaware, Inc., priority 2004, dated 2009).

The structures appear in SMILES notation. pKi: −log10 of the molar value. Structures can show the parent of a compound that is named as a salt.

The pKi is −log10 of the Ki, conventionally taken in molar units.

In the first assay the target is h 5-HT4e Receptor (Homo sapiens, UniProt Q13639). Put plainly: h 5-HT4e receptor binding affinity assay.
Chain of h 5-HT4e Receptor (Q13639 1-378 isoform Q13639-5): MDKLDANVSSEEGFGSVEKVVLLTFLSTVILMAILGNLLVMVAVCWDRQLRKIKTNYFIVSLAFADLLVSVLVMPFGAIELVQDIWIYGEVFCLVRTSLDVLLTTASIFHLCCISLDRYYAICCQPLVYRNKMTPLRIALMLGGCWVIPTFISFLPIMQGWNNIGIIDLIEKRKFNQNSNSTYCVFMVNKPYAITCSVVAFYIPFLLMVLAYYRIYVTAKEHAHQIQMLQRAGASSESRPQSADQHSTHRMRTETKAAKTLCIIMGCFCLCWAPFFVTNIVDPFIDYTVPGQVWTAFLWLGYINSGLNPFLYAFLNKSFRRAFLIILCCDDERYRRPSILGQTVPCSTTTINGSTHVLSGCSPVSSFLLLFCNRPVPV
Conditions: not given
Consider `CC(C)Cn1c(=O)c(C(=O)NCCCN2CCCCC2)c(O)c2ccsc21` [Compound 1, 6,7-Dihydro-4-hydroxy-7-isobutyl-6-oxo-N-(3-(piperidin-1-yl)propyl)thieno[2,3-b]pyridine-5-carboxamide hydrochloride salt], for which the negative logarithm of the Ki (pKi) is 6.92.

Turning to `CCCn1c(=O)c(C(=O)NCCCN2CCC(C)CC2)c(O)c2ccsc21` [Compound 2, 6,7-Dihydro-4-hydroxy-N-(3-(4-methylpiperidin-1-yl)propyl)-6-oxo-7-propylthieno[2,3-b]pyridine-5-carboxamide hydrochloride salt], the pKi is 6.80.

The molecule `CCn1c(=O)c(C(=O)NCCCN2CCCCC2)c(O)c2ccsc21` [Compound 3, 6,7-Dihydro-7-ethyl-4-hydroxy-6-oxo-N-(3-(piperidin-1-yl)propyl)thieno[2,3-b]pyridine-5-carboxamide hydrochloride salt] showed a negative logarithm of the Ki (pKi) of 7.44.

The molecule `CCn1c(=O)c(C(=O)NCCCN2CCC(C)CC2)c(O)c2ccsc21` [Compound 4, 6,7-Dihydro-7-ethyl-4-hydroxy-N-(3-(4-methylpiperidin-1-yl)propyl)-6-oxothieno[2,3-b]pyridine-5-carboxamide hydrochloride salt] showed a negative logarithm of the Ki (pKi) of 7.70.

Molecule `CCC1CCN(CCCNC(=O)c2c(O)c3ccsc3n(CC)c2=O)CC1` [Compound 5, 6,7-Dihydro-7-ethyl-N-(3-(4-ethylpiperidin-1-yl)propyl)-4-hydroxy-6-oxothieno[2,3-b]pyridine-5-carboxamide hydrochloride salt] had a pKi of 7.59.

`CC(C)n1c(=O)c(C(=O)NCCCN2CCCC2)c(O)c2ccsc21` [Compound 6, 6,7-Dihydro-4-hydroxy-7-isopropyl-6-oxo-N-(3-(pyrrolidin-1-yl)propyl)thieno-[2,3-b]pyridine-5-carboxamide hydrochloride salt] showed a pKi of 7.46.

As for `CC1CCN(CCCNC(=O)c2c(O)c3ccsc3n(C(C)C)c2=O)CC1` [Compound 8, 6,7-Dihydro-4-hydroxy-7-isopropyl-N-(3-(4-methylpiperidin-1-yl)propyl)-6-oxothieno[2,3-b]pyridine-5-carboxamide hydrochloride salt], the negative-log Ki (pKi) was 7.19.

Consider `CC(C)n1c(=O)c(C(=O)NCCCN2CCC(C(F)(F)F)CC2)c(O)c2ccsc21` [Compound 9, 6,7-Dihydro-4-hydroxy-7-isopropyl-6-oxo-N-(3-(4-(trifluoromethyl)piperidin-1-yl)propyl)thieno[2,3-b]pyridine-5-carboxamide hydrochloride salt], for which the negative-log Ki (pKi) is 7.30.

The molecule `COC(=O)C1CCN(CCCNC(=O)c2c(O)c3ccsc3n(C(C)C)c2=O)CC1` [Compound 10, 6,7-Dihydro-4-hydroxy-7-isopropyl-6-oxo-N-(3-(4-(methoxycarbonyl)piperidin-1-yl)propyl)thieno[2,3-b]pyridine-5-carboxamide hydrochloride salt] showed a pKi of 7.40.

Molecule `CC(C)n1c(=O)c(C(=O)NCCCN2CCC(F)(F)CC2)c(O)c2ccsc21` [Compound 11, N-(3-(4,4-Difluoropiperidin-1-yl)propyl)-6,7-dihydro-4-hydroxy-7-isopropyl-6-oxothieno[2,3-b]pyridine-5-carboxamide hydrochloride salt] gave a pKi of 6.66.

Regarding `CC(C)n1c(=O)c(C(=O)NCCCN2CCC(C)(C)CC2)c(O)c2ccsc21` [Compound 12, 6,7-Dihydro-N-(3-(4,4-dimethylpiperidin-1-yl)propyl)-4-hydroxy-7-isopropyl-6-oxothieno[2,3-b]pyridine-5-carboxamide hydrochloride salt], the pKi was 6.70.

In the case of `CC(C)n1c(=O)c(C(=O)NCCCN2[C@H](C)CCC[C@@H]2C)c(O)c2ccsc21` [Compound 13, 6,7-Dihydro-N-(3-((2R,6S)-2,6-dimethylpiperidin-1-yl)propyl)-4-hydroxy-7-isopropyl-6-oxothieno[2,3-b]pyridine-5-carboxamide hydrochloride salt], the negative-log Ki (pKi) was 6.42.

With `Cc1sc2c(c1C)c(O)c(C(=O)NCCCN1CCCCC1)c(=O)n2C(C)C` [Compound 14, 6,7-Dihydro-2,3-dimethyl-4-hydroxy-7-isopropyl-6-oxo-N-(3-(piperidin-1-yl)propyl)thieno-[2,3-b]pyridine-5-carboxamide hydrochloride salt], the pKi was 6.85.

For `COc1c(C(=O)NCCCN2CCCCC2)c(=O)n(C(C)C)c2sccc12` [Compound 16, 6,7-Dihydro-7-isopropyl-4-methoxy-6-oxo-N-(3-(piperidin-1-yl)propyl)thieno[2,3-b]pyridine-5-carboxamide], the pKi is 7.51.

A further assay relates to rats. Put plainly: Reversal of the scopolamine-induced deficit of Morris water maze performance. Type of assay: in vivo, rat. To be noted: scopolamine 1 mg/kg i.p., compound at both 15 mg/kg and 30 mg/kg p.o. The source says:
Reversal of the Scopolamine-Induced Deficit of Water Maze Performance in Rats
The Morris Water Maze test is commonly used to study hippocampal-dependent spatial memory acquisition. It consists of a water pool with a hidden escape platform where the rats must learn the location of the platform using either contextual or local cues. […] Lesions of the hippocampus or its cholinergic input impair performance (e.g., by scopolamine) by inducing a performance deficit (latency or time to reach the platform location) in this test without affecting the speed of swimming or other general behaviors in the test animals.
On to `CC(C)n1c(=O)c(C(=O)NCCCN2CCCCC2)c([O-])c2ccsc21.[K+]` [Compound 23, 6,7-Dihydro-4-hydroxy-7-isopropyl-6-oxo-N-(3-(piperidin-1-yl)propyl)thieno[2,3-b]pyridine-5-carboxamide potassium salt], for which the “decrease in path length to reach the platform” value was 35-55% and the “decrease in time to reach the platform” value is on record as 25-30%.

The assay is the same for the next values; noted with them: scopolamine pretreatment 1 mg/kg i.p.
Regarding `CN1[C@@H]2C[C@@H](OC(=O)[C@H](CO)c3ccccc3)C[C@H]1[C@@H]1O[C@@H]12` [scopolamine, reference compound], the “increase in latency and path length to find the platform compared with vehicle treated rats” value is ~5 fold.

Another assay has as its system rats. Put plainly: Spontaneous alternation task (cross maze), spatial working memory. The note with it: 5 mg/kg i.p., 12 minutes on cross maze. Type of assay: in vivo, rat. Set-up: number of arm entries: unit not given here. The source says: Effect of Compound 23 on Spatial Working Memory in the Spontaneous Alternation Task Performance in Rats
Rats have an innate tendency to explore their environment in a systematic way. That is, if a rat chose a certain arm on the first trial in a maze, there is high probability that it will choose a different arm on the second trial. […] The performance in the spontaneous alternation test is highly dependent on spatial working memory capacity and rats with compromised “working memory” cannot retain information regarding places just visited in memory; therefore they show decreased spontaneous alternation. In this study, rats were tested for spontaneous alternation performance on the cross maze. Rats were allowed to explore the maze freely for 12 minutes. An alternation was recorded if a rat entered all four arms within a series of four consecutive entries. Chance performance is 22.5% with this measure.
As for `CC(C)n1c(=O)c(C(=O)NCCCN2CCCCC2)c([O-])c2ccsc21.[K+]` [Compound 23, 6,7-Dihydro-4-hydroxy-7-isopropyl-6-oxo-N-(3-(piperidin-1-yl)propyl)thieno[2,3-b]pyridine-5-carboxamide potassium salt], the “number of arm entries” value was determined as 30.

The same assay, now with this note: 5 mg/kg i.p., 12 minutes on cross maze, chance performance 22.5%.
Take `CC(C)n1c(=O)c(C(=O)NCCCN2CCCCC2)c([O-])c2ccsc21.[K+]` [Compound 23, 6,7-Dihydro-4-hydroxy-7-isopropyl-6-oxo-N-(3-(piperidin-1-yl)propyl)thieno[2,3-b]pyridine-5-carboxamide potassium salt]: the mean alternation score is on record as 58%±3%.
